Results as given in patent US20090252814A1, “USE OF XENON FOR ORGAN PROTECTION” (priority 2005, published 2009).

Columns and labels:
brain = conditions: administered 4 hours after hypoxic-ischaemic injury, neonatal rats; cited from earlier work
VEGF = VEGF expression in adult mice brains (western blot); assay type: in vivo, C57BL/6J mice; conditions: 75% xenon and 25% oxygen 2 h, harvested 0-48 h after
Protocol: Studies were performed on 8 to 12-wk-old C57BL/6J mice (Jackson Labs, Bar Harbor, Me.) that were fed a standard laboratory diet. All procedures were approved by the Home Office.
The mice were exposed to 75% xenon and 25% oxygen for two hours. The xenon gas was administered to the mice by inhalation. The brains of said adult mice were then harvested as described below between 0-48 hours after exposure to the xenon gas.
The tissues were homogenised and western blots of adult mice brain samples were carried out as described in Example 1.
The primary antibodies were anti-α-tubulin antibody, and monoclonal mouse anti-VEGF antibody.

erythropoietin (EPO) = test: EPO RNA expression in neonatal rat brain (RT-PCR); assay type: in vivo, Sprague Dawley rats; conditions: neonatal rat brains, 75% xenon 2 h, harvested 0-24 h after
Protocol: Neonatal rats (7 days) Sprague Dawley rats were used. All procedures were approved by the Home Office.
C=Rat hippocampal brain control stored in −80° C. 0=Rat hippocampal brain treated with xenon for 2 hrs, sacrificed immediately after and stored in −80° C. 2=Rat hippocampal brain treated with xenon for 2 hrs, sacrificed 2 hrs later and stored in −80° C. 4=Rat hippocampal brain treated with xenon for 2 hrs, sacrificed 4 hrs later and stored in −80° C. 8=Rat hippocampal brain treated with xenon for 2 hrs, sacrificed 8 hrs later and stored in −80° C. 24=Rat hippocampal brain treated with xenon for 2 hrs, sacrificed 24 hrs later and stored in −80° C. P2=Rat hippocampal brain positive control with ischaemia injury for 45 mins, harvested after 24 hrs, stored in −80° C.
Total RNA was extracted from neonatal rat brains.
Reverse transcription of the RNA in order to obtain the first-strand cDNA was carried out using techniques well known in the art. […]
The resulting PCR amplification products were electrophoresed on a 1×TAE agarose gel in 1×TAE buffer and visualised using Fluor-S MultiImager BIORAD. […] As the level of fluorescence is approximately proportional to the amount of intercalated ethidium bromide, the abundance of amplified DNA within samples can be compared; in other words, the level of expression of a gene of interest can be determined. […]

Compound: [Xe] [xenon]
- neuroprotection by combination of xenon and hypothermia (brain): synergistic neuroprotection
- expression of VEGF (VEGF): time-dependent increase
- EPO expression (RNA) (erythropoietin (EPO)): time-dependent increase
